Reference: US20060122175A1, “Benzdioxane piperazine derivatives with a combination of affinity for dopamine-D2 receptors and serotonin reuptake sites” (SOLVAY PHARMACEUTICALS B.V., priority 2004, published 2006)
Structures can show the parent of a compound that is named as a salt.

What was measured:
dopamine D2 receptors = assay: Antagonism of apomorphine-induced climbing behaviour in mice (APO-climb); conditions: Mus musculus, po, read-out: in vivo activity Dopamine-D2 APO-climb* ED50 mg/kg po
dopamine-D2 receptors = target: T1, dopamine-D2 receptors (Rattus norvegicus, UniProt P61169); assay: In vitro affinity for dopamine-D2 receptors ([3H]-spiroperidol receptor binding assay); conditions: average values from three independent experiments
T1 construct: labels dopamine receptors in rat pituitary and brain; from tissue; host or cells: rat pituitary and brain (per the title of the cited method)
T1 sequence (P61169 whole entry): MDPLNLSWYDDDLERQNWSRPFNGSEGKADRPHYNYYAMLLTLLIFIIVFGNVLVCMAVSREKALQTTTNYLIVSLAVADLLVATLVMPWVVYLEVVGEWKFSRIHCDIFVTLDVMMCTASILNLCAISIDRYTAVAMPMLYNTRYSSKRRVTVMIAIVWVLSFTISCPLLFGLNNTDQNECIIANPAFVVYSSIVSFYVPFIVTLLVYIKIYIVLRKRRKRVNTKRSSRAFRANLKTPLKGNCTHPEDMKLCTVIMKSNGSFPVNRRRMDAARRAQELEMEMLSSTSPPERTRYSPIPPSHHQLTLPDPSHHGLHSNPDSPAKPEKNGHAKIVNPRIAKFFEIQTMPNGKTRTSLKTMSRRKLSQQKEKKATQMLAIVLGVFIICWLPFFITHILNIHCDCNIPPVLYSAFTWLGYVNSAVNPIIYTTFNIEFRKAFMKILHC
Description: The affinity of the compounds of the invention for dopamine-D2 receptors and serotonine reuptake sites was determined as described above. […] Pharmacokinetic, pharmacodynamic, and other considerations may alter the dose actually administered to a higher or lower value. The dosage expediently administered is 0.001-1000 mg/kg, preferably 0.1-100 mg/kg of patient's bodyweight.
(§1) The results in the table below were obtained according to the methods described above. Binding data are average values from three independent experiments.

serotonin reuptake = assay: Potentiation of 5-HTP induced behaviour in mice; conditions: Mus musculus, po, read-out: in vivo activity 5-HT reuptake 5-HTP** ED50 mg/kg po
From the text: The compounds show activity as antagonists at dopamine D2 receptors as they potentially antagonize apomorphine-induced climbing behaviour in mice (B. Costall et al., ‘Climbing behaviour induced by apomorphine in mice: a potential model for the detection of neuroleptic activity’, Eur. J. Pharmacol., 1978, 1, 39-50). The compounds also show activity as inhibitors of serotonin reuptake, as they potentiate 5-HTP induced behaviour in mice (B. L. Jacobs., ‘An animal behaviour model for studying central serotonergic synapses’, Life Sci., 1976, 19(6), 777-785). The compounds are active in therapeutic models sensitive to clinically relevant antipsychotics (e.g. the conditioned avoidance response; Van der Heyden & Bradford, Behav. Brain Res., 1988, 31:61-67) and antidepressants or anxiolytics (e.g. suppression of stress-induced vocalization; van der Poel et al., Psychopharmacology, 1989, 97: 147-148). In contrast to clinically relevant dopamine D2 receptor antagonists the described compounds have a low propensity to induce catalepsy in rodents and as such are likely to induce less extrapyramidal side effects than existing antipsychotic agents. The inhibitory activity of serotonin reuptake inherent in these compounds may be responsible for the therapeutic effects observed in behavioural models sensitive to either antidepressants or anxiolytics. The compounds can be used for the treatment of affections or diseases of the central nervous system caused by disturbances in either the dopaminergic or serotonergic systems, for example: aggression, anxiety disorders, autism, vertigo, depression, disturbances of cognition or memory, Parkinson's disease, and in particular schizophrenia and other psychotic disorders.

serotonin reuptake sites = target: T2, serotonin reuptake sites (Rattus norvegicus, UniProt P31652); assay: In vitro affinity for serotonin reuptake sites ([3H]-paroxetine receptor binding assay); conditions: average values from three independent experiments; read-out: in vitro affinity 5-HT reuptake binding Ki
T2 construct: from tissue; host or cells: rat cortical membranes (per the title of the cited method)
T2 sequence (P31652 whole entry): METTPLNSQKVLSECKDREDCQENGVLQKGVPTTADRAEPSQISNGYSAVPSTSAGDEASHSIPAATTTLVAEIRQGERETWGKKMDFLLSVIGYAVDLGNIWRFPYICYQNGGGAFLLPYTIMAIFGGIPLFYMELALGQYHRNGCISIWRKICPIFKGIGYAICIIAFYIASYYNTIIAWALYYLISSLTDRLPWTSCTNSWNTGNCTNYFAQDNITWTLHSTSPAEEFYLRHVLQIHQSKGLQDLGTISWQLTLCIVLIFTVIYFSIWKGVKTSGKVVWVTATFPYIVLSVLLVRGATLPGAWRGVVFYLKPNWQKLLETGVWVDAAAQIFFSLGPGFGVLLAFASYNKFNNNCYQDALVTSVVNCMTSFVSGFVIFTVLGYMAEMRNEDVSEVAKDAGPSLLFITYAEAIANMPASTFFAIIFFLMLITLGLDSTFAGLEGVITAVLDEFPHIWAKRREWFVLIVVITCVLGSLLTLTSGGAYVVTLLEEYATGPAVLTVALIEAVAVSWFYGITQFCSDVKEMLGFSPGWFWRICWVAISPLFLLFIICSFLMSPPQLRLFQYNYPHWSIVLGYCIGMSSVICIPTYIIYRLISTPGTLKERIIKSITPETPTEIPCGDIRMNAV
Description: The affinity of the compounds of the invention for dopamine-D2 receptors and serotonine reuptake sites was determined as described above. From the binding affinity measured for a given compound of formula (1), one can estimate a theoretical lowest effective dose. […] Converting that concentration to mg of compound per kg of patient yields a theoretical lowest effective dose, assuming ideal bioavailability. Pharmacokinetic, pharmacodynamic, and other considerations may alter the dose actually administered to a higher or lower value. The dosage expediently administered is 0.001-1000 mg/kg, preferably 0.1-100 mg/kg of patient's bodyweight.
as §1

Row | Structure (SMILES) | melting point | Ki (dopamine-D2 receptors) | ED50 (serotonin reuptake) | other results
1 | Fc1ccc2c(CCCN3CCN(c4cccc5c4OCCO5)CC3)c[nH]c2c1 (as salt: fumaric acid salt) [Compound 5f, 3-{3-[4-(2,3-Dihydro-benzo[1,4]dioxin-5-yl)-piperazin-1-yl]-propyl}-6-fluoro-1H-indole] | 205 to 206 °C |  |  | 
2 | Cc1ccc2[nH]cc(CCCN3CCN(c4cccc5c4OCCO5)CC3)c2c1 (as salt: fumaric acid salt) [Compound 5m, 3-{3-[4-(2,3-Dihydro-benzo[1,4]dioxin-5-yl)-piperazin-1-yl]-propyl}-5-methyl-1H-indole] | 215 to 217 °C (dec.) |  |  | 
3 | c1cc2c(c(N3CCN(CCCc4c[nH]c5ccccc45)CC3)c1)OCCO2 [Compound 5b, 3-{3-[4-(2,3-Dihydro-benzo[1,4]dioxin-5-yl)-piperazin-1-yl]-propyl}-1H-indole] | 150 to 152 °C | 0.021 ± 0.0099 µM | 22 mg/kg | ED50 (dopamine D2 receptors): 10 mg/kg
4 | Fc1ccc2[nH]cc(CCCN3CCN(c4cccc5c4OCCO5)CC3)c2c1 [Compound 5e, 3-{3-[4-(2,3-Dihydro-benzo[1,4]dioxin-5-yl)-piperazin-1-yl]-propyl}-5-fluoro-1H-indole] |  | 0.019 ± 0.003 µM | 2 mg/kg | 
5 | Fc1ccc2c(CCCN3CCN(c4cccc5c4OCCO5)CC3)c[nH]c2c1 [Compound 5f, 3-{3-[4-(2,3-Dihydro-benzo[1,4]dioxin-5-yl)-piperazin-1-yl]-propyl}-6-fluoro-1H-indole] |  |  | 30 mg/kg | ED50 (dopamine D2 receptors): 9 mg/kg
6 | Fc1cccc2c(CCCN3CCN(c4cccc5c4OCCO5)CC3)c[nH]c12 [Compound 5g, 3-{3-[4-(2,3-Dihydro-benzo[1,4]dioxin-5-yl)-piperazin-1-yl]-propyl}-7-fluoro-1H-indole] |  | 0.0106 ± 0.004 µM | 28.4 mg/kg | 
7 | Clc1cccc2[nH]cc(CCCN3CCN(c4cccc5c4OCCO5)CC3)c12 [Compound 5i, 3-{3-[4-(2,3-Dihydro-benzo[1,4]dioxin-5-yl)-piperazin-1-yl]-propyl}-4-chloro-1H-indole] |  | 0.024 ± 0.003 µM |  | 
8 | Clc1ccc2[nH]cc(CCCN3CCN(c4cccc5c4OCCO5)CC3)c2c1 [Compound 5j, 3-{3-[4-(2,3-Dihydro-benzo[1,4]dioxin-5-yl)-piperazin-1-yl]-propyl}-5-chloro-1H-indole] |  | 0.0316 ± 0.016 µM |  | Ki (serotonin reuptake sites): 0.0014 ± 0.0007 µM
9 | Clc1cccc2c(CCCN3CCN(c4cccc5c4OCCO5)CC3)c[nH]c12 [Compound 5l, 3-{3-[4-(2,3-Dihydro-benzo[1,4]dioxin-5-yl)-piperazin-1-yl]-propyl}-7-chloro-1H-indole] |  | 0.0155 ± 0.0054 µM |  | 
10 | Cc1ccc2[nH]cc(CCCN3CCN(c4cccc5c4OCCO5)CC3)c2c1 [Compound 5m, 3-{3-[4-(2,3-Dihydro-benzo[1,4]dioxin-5-yl)-piperazin-1-yl]-propyl}-5-methyl-1H-indole] |  |  |  | Ki (serotonin reuptake sites): 0.0013 ± 0.0009 µM
11 | Cc1cccc2c(CCCN3CCN(c4cccc5c4OCCO5)CC3)c[nH]c12 [Compound 5n, 3-{3-[4-(2,3-Dihydro-benzo[1,4]dioxin-5-yl)-piperazin-1-yl]-propyl}-7-methyl-1H-indole] |  | 0.0159 ± 0.0047 µM |  | 
12 | c1cc2c(c(N3CCN(CCCc4c[nH]c5ccccc45)CC3)c1)CCCO2 [Compound 14, 3-[3-(4-chroman-5-yl-piperazine-1-yl)-propyl]-1H-indole] |  | 0.0203 ± 0.0027 µM |  | 

More lines, main results first:

Row | melting point | Ki (dopamine-D2 receptors) | Structure (SMILES) | ED50 (serotonin reuptake) | other results
13 | 61 to 63 °C |  | Clc1ccc2[nH]cc(CCCN3CCN(c4cccc5c4OCCO5)CC3)c2c1 (as salt: fumaric acid salt) [Compound 5j, 3-{3-[4-(2,3-Dihydro-benzo[1,4]dioxin-5-yl)-piperazin-1-yl]-propyl}-5-chloro-1H-indole] |  | 
14 | 85 to 86 °C |  | c1cc2c(c(N3CCN(Cc4c[nH]c5ccccc45)CC3)c1)OCCO2 [Compound 5a, 3-[4-(2,3-Dihydro-benzo[1,4]dioxin-5-yl)-piperazin-1-yl-methyl]-1H-indole] |  | 
15 |  | 0.0091 ± 0.0018 µM | c1cc2c(c(N3CCN(CCCCCc4c[nH]c5ccccc45)CC3)c1)OCCO2 [Compound 5c, 3-{5-[4-(2,3-Dihydro-benzo[1,4]dioxin-5-yl)-piperazin-1-yl]-pentyl}-1H-indole] |  | 
16 | 207 to 208 °C | 0.0081 ± 0.0031 µM | Fc1cccc2[nH]cc(CCCN3CCN(c4cccc5c4OCCO5)CC3)c12 [Compound 5d, 3-{3-[4-(2,3-Dihydro-benzo[1,4]dioxin-5-yl)-piperazin-1-yl]-propyl}-4-fluoro-1H-indole] | 32 mg/kg | ED50 (dopamine D2 receptors): 13 mg/kg
17 |  | 0.005 ± 0.004 µM | COc1ccc2[nH]cc(CCCN3CCN(c4cccc5c4OCCO5)CC3)c2c1 [Compound 5h, 3-{3-[4-(2,3-Dihydro-benzo[1,4]dioxin-5-yl)-piperazin-1-yl]-propyl}-5-methoxy-1H-indole] |  | 
18 |  | 0.0021 ± 0.001 µM | Clc1ccc2c(CCCN3CCN(c4cccc5c4OCCO5)CC3)c[nH]c2c1 [Compound 5k, 3-{3-[4-(2,3-Dihydro-benzo[1,4]dioxin-5-yl)-piperazin-1-yl]-propyl}-6-chloro-1H-indole] | 86 mg/kg | ED50 (dopamine D2 receptors): 4.5 mg/kg
